Publication PMC11079024, “Identification of a family of species-selective complex I inhibitors as potential anthelmintics” (Nature Communications, 2024)
Where two headings read alike, the source gives them in different places.

What was measured:
[1] = molecular target: B. taurus (heart) complex I (Bos taurus, UniProt P03887+P17694+P42026); test: biochemical; assay type: biochemical; details: for IC50: B. taurus heart mitochondria, read-out: B. taurus Complex I IC50; for activity at 0.0001 µM / activity at 0.0005 µM / activity at 0.001 µM / activity at 0.0025 µM / activity at 0.005 µM / activity at 0.013 µM / activity at 0.025 µM / activity at 0.063 µM / activity at 0.125 µM / activity at 0.313 µM / activity at 0.625 µM / activity at 1.5 µM / activity at 3 µM / activity at 15 µM / activity at 37.5 µM / activity at 75 µM: read-out: B. taurus mitochondrial complex I activity; for Log IC50 B. taurus complex I: log10 of IC50 in µM, B. taurus mitochondria
In short: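 Complex I activity followed as DCIP reduction (600 nm, 30 s reads, 15 min) with 80 μM NADH and 60 μM decylubiquinone in 25 mM KPi pH 7.5 containing 2 μM antimycin A and 2 mM KCN. Freeze-thawed mouse or bovine heart mitochondria at 0.2 mg/mL; initial-rate percent of solvent control, single-point 100 μM or dose-response.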

[2] = molecular target: C. elegans (N2) complex I (NADH:ubiquinone oxidoreductase) (Caenorhabditis elegans, UniProt P24887+Q93873+Q94360); test: biochemical; assay type: biochemical; details: for activity at 0.0001 µM / activity at 0.0005 µM / activity at 0.001 µM / activity at 0.0025 µM / activity at 0.005 µM / activity at 0.013 µM / activity at 0.025 µM / activity at 0.063 µM / activity at 0.125 µM / activity at 0.313 µM / activity at 0.625 µM / activity at 1.5 µM / activity at 3 µM / activity at 15 µM / activity at 75 µM / activity at 37.5 µM: read-out: C. elegans mitochondrial complex I activity; for Log IC50 C. elegans complex I: log10 of IC50 in µM, C. elegans mitochondria
In short: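 Activity expressed as percent of solvent control. Complex I rate came from DCIP reduction at 600 nm (initial linear slope, 15 min) with NADH and decylubiquinone as substrates, plus antimycin A and KCN, in pH 7.5 KPi/BSA buffer. Isolated, thrice freeze-thawed mitochondria used at 0.2 mg/mL.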

[3] = estimated from fitted dose-response curves
[4] = wild-type C. elegans mitochondria, estimated from fitted dose-response curves, read-out: C. elegans Complex I IC50
[5] = in vitro complex I dose response on C. elegans mitochondria, average of at least two biological replicates, fit in R (DRC), read-out: IC50 C. elegans complex I

B. taurus (heart) complex I, sequence (P03887 whole entry): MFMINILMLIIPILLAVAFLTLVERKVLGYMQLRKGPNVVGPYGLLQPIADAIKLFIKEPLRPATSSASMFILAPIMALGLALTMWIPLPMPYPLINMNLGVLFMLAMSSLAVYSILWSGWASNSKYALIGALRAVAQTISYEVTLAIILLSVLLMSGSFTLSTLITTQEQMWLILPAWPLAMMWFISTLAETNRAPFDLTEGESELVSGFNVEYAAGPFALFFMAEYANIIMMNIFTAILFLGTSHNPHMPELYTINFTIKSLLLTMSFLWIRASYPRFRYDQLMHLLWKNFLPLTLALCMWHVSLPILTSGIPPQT
B. taurus (heart) complex I, sequence (P17694 34-463): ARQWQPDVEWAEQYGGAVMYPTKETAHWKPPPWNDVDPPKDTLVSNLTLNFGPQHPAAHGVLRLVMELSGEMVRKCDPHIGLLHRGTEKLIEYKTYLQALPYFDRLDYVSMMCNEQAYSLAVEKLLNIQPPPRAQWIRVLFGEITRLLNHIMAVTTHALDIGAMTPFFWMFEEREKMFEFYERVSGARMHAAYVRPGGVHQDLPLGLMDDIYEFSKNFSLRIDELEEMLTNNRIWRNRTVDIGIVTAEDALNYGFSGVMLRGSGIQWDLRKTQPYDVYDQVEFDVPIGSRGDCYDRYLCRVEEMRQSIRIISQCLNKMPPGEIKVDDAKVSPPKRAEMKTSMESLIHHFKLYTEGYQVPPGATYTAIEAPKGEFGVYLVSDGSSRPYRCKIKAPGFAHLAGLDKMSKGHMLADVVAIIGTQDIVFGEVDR
B. taurus (heart) complex I, sequence (P42026 38-216): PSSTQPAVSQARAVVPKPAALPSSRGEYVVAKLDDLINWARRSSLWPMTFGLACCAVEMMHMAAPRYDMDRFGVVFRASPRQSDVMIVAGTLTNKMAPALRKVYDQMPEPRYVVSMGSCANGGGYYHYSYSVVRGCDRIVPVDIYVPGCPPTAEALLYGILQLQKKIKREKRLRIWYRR
C. elegans (N2) complex I (NADH:ubiquinone oxidoreductase), sequence (Q94360 17-199): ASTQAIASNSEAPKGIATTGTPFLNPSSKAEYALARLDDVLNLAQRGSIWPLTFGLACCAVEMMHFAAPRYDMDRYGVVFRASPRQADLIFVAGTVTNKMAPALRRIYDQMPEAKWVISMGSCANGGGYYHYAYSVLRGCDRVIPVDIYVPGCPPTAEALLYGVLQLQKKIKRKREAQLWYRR
C. elegans (N2) complex I (NADH:ubiquinone oxidoreductase), sequence (P24887 whole entry): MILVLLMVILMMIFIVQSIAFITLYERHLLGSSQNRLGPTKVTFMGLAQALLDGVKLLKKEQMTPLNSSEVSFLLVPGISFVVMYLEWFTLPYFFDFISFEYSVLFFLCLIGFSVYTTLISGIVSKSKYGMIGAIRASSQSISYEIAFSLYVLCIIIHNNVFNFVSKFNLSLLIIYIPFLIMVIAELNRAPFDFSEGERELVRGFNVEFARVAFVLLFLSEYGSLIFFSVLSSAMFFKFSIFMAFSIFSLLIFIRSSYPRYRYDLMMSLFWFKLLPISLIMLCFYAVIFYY
C. elegans (N2) complex I (NADH:ubiquinone oxidoreductase), sequence (Q93873 31-482): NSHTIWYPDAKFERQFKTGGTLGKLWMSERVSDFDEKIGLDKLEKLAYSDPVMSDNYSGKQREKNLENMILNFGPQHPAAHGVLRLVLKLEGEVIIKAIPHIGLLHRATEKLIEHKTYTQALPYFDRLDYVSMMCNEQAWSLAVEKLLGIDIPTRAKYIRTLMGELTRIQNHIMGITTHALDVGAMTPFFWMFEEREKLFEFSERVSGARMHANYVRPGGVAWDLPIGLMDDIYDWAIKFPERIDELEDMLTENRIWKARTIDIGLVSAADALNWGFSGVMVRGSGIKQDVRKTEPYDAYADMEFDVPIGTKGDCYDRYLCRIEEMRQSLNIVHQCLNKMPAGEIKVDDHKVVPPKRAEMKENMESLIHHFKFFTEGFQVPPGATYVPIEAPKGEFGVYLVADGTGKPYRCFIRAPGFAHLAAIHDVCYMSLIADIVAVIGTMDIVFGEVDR

Compound | IC50 [1, 3] [nM] | activity at 0.0001 µM [1] [%] | activity at 0.0005 µM [1] [%] | activity at 0.001 µM [1] [%] | activity at 0.0025 µM [1] [%] | activity at 0.005 µM [1] [%] | activity at 0.013 µM [1] [%] | activity at 0.025 µM [1] [%] | activity at 0.063 µM [1] [%] | activity at 0.125 µM [1] [%] | activity at 0.313 µM [1] [%] | activity at 0.625 µM [1] [%] | activity at 1.5 µM [1] [%] | activity at 3 µM [1] [%] | activity at 15 µM [1] [%] | activity at 37.5 µM [1] [%] | activity at 75 µM [1] [%] | Log IC50 B. taurus complex I [1] [µM] | activity at 0.0001 µM [2] [%] | Log IC50 C. elegans complex I [2] [µM] | further results
Brc1ccccc1OCCCCn1cnc2ccccc21 [Compound 7924576] | 1140 | 104 | 101 | 108 | 104 | 101 | 102 | 102 | 96.3 | 84.6 | 74.3 | 68 | 44.1 | 32 | 6.52 | 3.45 | 3.05 | 0.0569 | 82.9 | -0.37 | activity at 0.0005 µM [2]: 89.9%; activity at 0.001 µM [2]: 81.8%; activity at 0.0025 µM [2]: 93.2%; activity at 0.005 µM [2]: 91.6%; activity at 0.013 µM [2]: 87.2%; activity at 0.025 µM [2]: 76%; activity at 0.063 µM [2]: 73.6%; activity at 0.125 µM [2]: 67.2%; activity at 0.313 µM [2]: 52.4%; activity at 0.625 µM [2]: 40.5%; activity at 1.5 µM [2]: 21.3%; activity at 3 µM [2]: 12.5%; activity at 15 µM [2]: 10.2%; activity at 75 µM [2]: 5.45%; IC50 [2, 4]: 430 nM
CC(C)Oc1cccc(OCCn2cnc3ccccc32)c1 [Compound 7926496] |  | 89.9 | 91.2 | 91.7 | 85.5 | 94.5 | 90.6 | 91.4 | 86 | 80.2 | 76.3 | 69.4 | 53.2 | 36 | 9.56 | 1.81 | 1.89 | 0.34 | 80 | 0.79 | IC50 [1]: 2190 nM; activity at 0.0005 µM [2]: 92.9%; activity at 0.001 µM [2]: 87.5%; activity at 0.0025 µM [2]: 88.5%; activity at 0.005 µM [2]: 89.3%; activity at 0.013 µM [2]: 88.3%; activity at 0.025 µM [2]: 81.7%; activity at 0.063 µM [2]: 79.5%; activity at 0.125 µM [2]: 81.6%; activity at 0.313 µM [2]: 76.9%; activity at 0.625 µM [2]: 83.9%; activity at 1.5 µM [2]: 76.4%; activity at 3 µM [2]: 65%; activity at 15 µM [2]: 17.8%; activity at 37.5 µM [2]: 0.13%; activity at 75 µM [2]: 0%; IC50 [2, 5]: 6200 nM; IC50 ([2]; wild-type C. elegans mitochondria, read-out: C. elegans Complex I IC50): 6200 nM
Cc1cccc(OCCn2c(C)nc3ccccc32)c1 [Compound 6285199] | 4970 | 98.3 | 97.3 | 100 | 95.3 | 95.1 | 97.1 | 95.3 | 88.5 | 87.7 | 83.8 | 79 | 67.9 | 54 | 18.4 | 5.61 | 1.08 | 0.70 | 94.3 | -0.0757 | activity at 0.0005 µM [2]: 99.3%; activity at 0.001 µM [2]: 86.9%; activity at 0.0025 µM [2]: 85.8%; activity at 0.005 µM [2]: 87.6%; activity at 0.013 µM [2]: 90.6%; activity at 0.025 µM [2]: 92.4%; activity at 0.063 µM [2]: 78.1%; activity at 0.125 µM [2]: 81.6%; activity at 0.313 µM [2]: 54.6%; activity at 0.625 µM [2]: 53.7%; activity at 1.5 µM [2]: 35.3%; activity at 3 µM [2]: 23.4%; activity at 15 µM [2]: 3.64%; activity at 37.5 µM [2]: 1.37%; activity at 75 µM [2]: 1.88%; IC50 [2, 5]: 840 nM; IC50 [2, 4]: 840 nM
Brc1ccc(Cn2cnc3ccccc32)cc1 [Compound 5542661] | 3350 |  |  |  |  |  |  |  |  |  |  |  |  |  |  |  |  | 0.53 |  | -0.28 | IC50 [2, 5]: 530 nM; IC50 ([2]; wild-type (N2) mitochondria, read-out: C. elegans Complex I IC50): 530 nM; IC50 [2, 4]: 530 nM
Cc1ccc(OCCn2cnc3ccccc32)c(C)c1 [Compound 7706808] | 8480 | 97.5 | 94.8 | 99.1 | 97 | 95.6 | 97.8 | 90.5 | 96 | 93.5 | 91.4 | 82.8 | 81.2 | 69.4 | 30.6 | 11.4 | 6.37 | 0.93 | 101 | 0.16 | activity at 0.0005 µM [2]: 107%; activity at 0.001 µM [2]: 103%; activity at 0.0025 µM [2]: 109%; activity at 0.005 µM [2]: 101%; activity at 0.013 µM [2]: 107%; activity at 0.025 µM [2]: 105%; activity at 0.063 µM [2]: 101%; activity at 0.125 µM [2]: 94.3%; activity at 0.313 µM [2]: 97.4%; activity at 0.625 µM [2]: 70.9%; activity at 1.5 µM [2]: 55.5%; activity at 3 µM [2]: 44.2%; activity at 15 µM [2]: 16.3%; activity at 37.5 µM [2]: 13.2%; activity at 75 µM [2]: 13.5%; IC50 [2, 5]: 1450 nM; IC50 [2, 4]: 1450 nM
